Measurements: patent US9522184B2, “CD89 activation in therapy” (CSL BEHRING AG, priority 2010, dated 2016)

Experiments:
neutrophils = assay: Pan-caspase inhibition of IgA-mediated neutrophil cell death; assay type: cell-based, human; conditions: qVD-OPh 20 μM, 24 hours, in the presence and absence of LPS and GM-CSF; FIG. 6
Source text: (§1) Antibodies: Anti-CD89 (Clone A59) (both unlabeled and phycoerythrin [PE]-conjugated), and PE-conjugated immunoglobulin G1 (IgG1) isotype control were from BD Biosciences (Basel, Switzerland). Goat anti-mouse IgG (GaM) and unlabelled control IgG1 were obtained from Jackson ImmunoResearch Laboratories (distributed by Milan Analytica, La Roche, Switzerland). Anti-Fas agonistic mAb (CH11) was obtained from LabForce AG (Nunningen, Switzerland). Pooled serum IgA was obtained from CSL Behring AG (Wankdorf, Bern), and was prepared as follows: IgA was purified from human plasma and side-fraction of the IVIg/SCIg manufacturing process by affinity chromatography using CaptureSelect Human IgA resin from BAC (Naarden, Netherlands). […] Cell purity was assessed by staining with Diff-Quik (Baxter, Düdingen, Switzerland) and light microscopy analysis. […] Immunofluorescence: CD89 surface expression was analyzed by flow cytometry following incubation of the cells with saturating concentrations of PE-conjugated anti-CD89 and isotype-matched PE-conjugated control mAbs. […] The caspase inhibitor qVD-OPh (quinoline-Val-Asp-difluorophenoxymethylketone) was used at […] Determination of Cell Death and Apoptosis: Cell death was assessed by uptake of 1 μM ethidium bromide and flow cytometric analysis (FACSCalibur, Becton Dickinson). […]

human neutrophils = assay: CD89 surface expression on neutrophils by flow cytometry after inflammatory stimulus; assay type: cell-based
Source text: as §1

Compound | effect on plasma IgA-mediated neutrophil cell death (neutrophils) | CD89 expression on neutrophils (human neutrophils; 8 hours, 100 ng/ml LPS or 10 ng/ml GM-CSF, blood neutrophils of healthy volunteers, FIG. 1A) | time to significant upregulation of CD89 expression (human neutrophils; time course, FIG. 1B) [h]
CC(C)[C@H](NC(=O)c1ccc2ccccc2n1)C(=O)N[C@@H](CC(=O)O)C(=O)COc1c(F)cccc1F [qVD-OPh, quinoline-Val-Asp-difluorophenoxymethylketone] | blocked |  | 
GM-CSF: Cytokine (Novartis Pharma) used as inflammatory stimulus |  | CD89 expression was increased | 4
